Source: US20090313718A1, “POLYNUCLEOTIDES ENCODING CARYOPHYLLENE SYNTHASE AND USES THEREOF” (priority 2006, published 2009)
“Also recorded” adds a separate entry of the source. Read-outs that look alike come from different tables or passages of the source.

Assays:
Heterorhabditis megidis = assay: Belowground six-arm olfactometer assay; format: in vivo
Description: 9. Bioassays • Attraction of the nematode Heterorhabditis megidis toward (E)-β-caryophyllene was tested with belowground six-arm olfactometer assays (Rasmann et al., 2005). The apparatus consisted of a central glass chamber with six evenly distributed side arms that connect it to six glass pots. The entire system was filled with moist sand (10% water). An aliquot of 0.2 μl of authentic (E)-β-caryophyllene (98% pure; Sigma-Aldrich) was injected into one of the glass pots and the five untreated pots were used as controls. About 2000 H. megidis were released in a drop of water in the centre of the central arena. […] On the next day, recovered nematodes were counted. • To test the above ground role of (E)-β-caryophyllene in attracting herbivore enemies, S. littoralis caterpillars and the solitary endoparasitoid Cotesia marginiventris were reared as described by Turlings et al. (2004). […] The experiment was repeated seven times. • The behavioral responses of parasitoids and entomopathogenic nematodes to (E)-β-caryophyllene were analyzed with a log-linear model corrected for the expected distribution within the olfactometer (Turlings et al. 2004). The model was fitted by maximum quasilikelihood estimation in the software package R (Version 2.4.0) and its adequacy was assessed through likelihood ratio statistics and examination of residuals. […]

Cotesia marginiventris = assay: Four-arm olfactometer assay with parasitoid females; format: in vivo; conditions: odor vs pure air
Description: FIG. 9 provides evidence that the parasitic wasp Cotesia marginiventris is attracted by (E)-β-caryophyllene after previous oviposition experience. Responses of the parasitic wasp Cotesia marginiventris to (E)-β-caryophyllene: The attraction of parasitoid females to a pure standard of (E)-β-caryophyllene was tested in a four-arm olfactometer. Two groups of parasitoids were tested: naïve wasps and wasps with a previous oviposition experience on host larvae in the presence of (E)-β-caryophyllene. The parasitoids were tested in groups of six (n=14).
9. […] On the next day, recovered nematodes were counted. • To test the above ground role of (E)-β-caryophyllene in attracting herbivore enemies, S. littoralis caterpillars and the solitary endoparasitoid Cotesia marginiventris were reared as described by Turlings et al. (2004). […] The experiment was repeated seven times. • The behavioral responses of parasitoids and entomopathogenic nematodes to (E)-β-caryophyllene were analyzed with a log-linear model corrected for the expected distribution within the olfactometer (Turlings et al. 2004). The model was fitted by maximum quasilikelihood estimation in the software package R (Version 2.4.0) and its adequacy was assessed through likelihood ratio statistics and examination of residuals. […]

pathogens = conditions: cited from earlier work
[1] = test system: adult females of D. v. virgifera; conditions: in vivo; cited from earlier work
TPS23-Del [2] = biological target: T1, TPS23-Del (Zea mays, UniProt B2C4D0); assay: Kinetic and metal ion cofactor assay with purified TPS23 and tritium-labeled FPP
T1 sequence (B2C4D0 1-547): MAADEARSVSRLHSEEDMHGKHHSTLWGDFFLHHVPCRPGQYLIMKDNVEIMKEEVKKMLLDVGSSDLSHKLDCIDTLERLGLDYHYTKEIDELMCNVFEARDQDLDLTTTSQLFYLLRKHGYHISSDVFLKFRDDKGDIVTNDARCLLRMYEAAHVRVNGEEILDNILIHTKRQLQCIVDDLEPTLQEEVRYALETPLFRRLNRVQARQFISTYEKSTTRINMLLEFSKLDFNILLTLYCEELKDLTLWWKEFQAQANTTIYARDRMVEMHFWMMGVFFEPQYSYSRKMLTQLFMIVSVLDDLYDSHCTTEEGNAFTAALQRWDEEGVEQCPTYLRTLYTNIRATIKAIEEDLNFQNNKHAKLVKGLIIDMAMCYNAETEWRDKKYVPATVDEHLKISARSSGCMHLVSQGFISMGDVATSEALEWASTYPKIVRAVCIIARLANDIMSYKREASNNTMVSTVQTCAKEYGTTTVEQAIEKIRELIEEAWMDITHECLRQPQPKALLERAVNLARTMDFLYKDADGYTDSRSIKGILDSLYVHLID
Description: (§1) The construct was introduced into the E. coli strain BL21 (DE3) and fully sequenced to avoid errors introduced by DNA amplification. Liquid cultures of the bacteria harboring the expression constructs were grown at 37° C. to an OD600 of 0.6. Then, isopropyl-β-thiogalactopyranoside was added to a final concentration of 1 mM, and the cultures were incubated for 20 hours at 18° C. The cells were collected by centrifugation and disrupted by a 4×30 s treatment with a sonicator (Bandelin UW2070) in chilled extraction buffer (50 mM Mopso, pH 7.0, with 5 mM MgCl2, 5 mM sodium ascorbate, 0.5 mM PMSF, 5 mM dithiothreitol and 10% (v/v) glycerol). The cell fragments were removed by centrifugation at 14,000 g and the supernatant was desalted into assay buffer (10 mM Mopso, pH 7.0, 1 mM dithiothreitol, 10% (v/v) glycerol) by passage through a Econopac 10DG column (BioRad, Hercules, Calif., USA). For kinetic studies the His-tagged enzyme was further purified on a nickel-nitrilotriacetate agarose column (Qiagen, Heidelberg, Germany) according to manufacturer's instructions.
(§2) Assay for Terpene Synthase Activity • To determine the catalytic activity of the terpene synthase TPS23, enzyme assays containing 50 μl of the bacterial extract and 50 μl assay buffer with 10 μM (E,E)-FPP, 10 mM MgCl2, 0.05 mM MnCl2, 0.2 mM NaWO4 and 0.1 mM NaF in a Teflon-sealed, screw-capped 1 ml GC glass vial were performed. […] The assay was overlaid with 1 ml pentane to trap volatile products and incubated for 20 min at 30° C. The reaction was stopped by mixing, and 0.5 ml of the pentane layer was taken for measurement of radioactivity by liquid scintillation counting in 2 ml Lipoluma cocktail (Packard Bioscience, Groningen, The Netherlands) using a Packard Tricarb 2300TR liquid scintillation counter (^3H efficiency=61%). […] Assay results are reported as the mean of three independent replicate assays, and each experiment was repeated 2-3 times with similar results. The Km values were determined using seven substrate concentrations with four repetitions each. […] The concentration of the purified protein was determined by the method of Bradford (1976) using the BioRad reagent with BSA as standard.
(§3) To determine the biochemical properties of TPS23-Del, the purified enzyme was incubated with tritium-labeled FPP and the assays performed under the appropriate conditions.

TPS23-Del [3] = biological target: T1, TPS23-Del; assay: Substrate specificity and product identification of recombinant TPS23 (SPME, GC-MS); format: biochemical, maize (Zea mays L.); parameters: For expression with a N-terminal 8×His tag the ORF of tps23 was amplified; 8xHis (N); made in house; host or cells: E. coli BL21 (DE3), vector pHIS8-3; conditions: recombinant His-tagged TPS23-Del from E. coli BL21 (DE3)
Description: as §1
Assay for Terpene Synthase Activity • To determine the catalytic activity of the terpene synthase TPS23, enzyme assays containing 50 μl of the bacterial extract and 50 μl assay buffer with 10 μM (E,E)-FPP, 10 mM MgCl2, 0.05 mM MnCl2, 0.2 mM NaWO4 and 0.1 mM NaF in a Teflon-sealed, screw-capped 1 ml GC glass vial were performed. A SPME (solid phase microextraction) fiber consisting of 100 μm Polydimethylsiloxane (SUPELCO, Belafonte, Pa., USA) was placed into the headspace of the vial for 1 h incubation at 30° C. […] Assay results are reported as the mean of three independent replicate assays, and each experiment was repeated 2-3 times with similar results. […] The concentration of the purified protein was determined by the method of Bradford (1976) using the BioRad reagent with BSA as standard.
Gas Chromatography • A Hewlett-Packard model 6890 gas chromatograph was employed with the carrier gas He at 1 ml min^−1, splitless injection (injector temperature—220° C.), a Chrompack CP-SIL-5 CB-MS column ((5%-phenyl)-methylpolysiloxane, 25 m×0.25 mm i.d.×0.25μ film thickness, Varian, USA) and a temperature program from 40° C. (3-min hold) at 5° C. min^−1 to 240° C. (3 min hold). The coupled mass spectrometer was a Hewlett-Packard model 5973 with a quadrupole mass selective detector, transfer line temperature—230° C., source temperature—230° C., quadrupole temperature—150° C., ionization potential—70 eV and a scan range of 40-350 atomic mass units. Products were identified by comparison of retention times and mass spectra with authentic reference compounds. […]

[4] = stored at −80° C.
[5] = substrate: CC(C)=CCC/C(C)=C/CC/C(C)=C/CO[P@@](=O)(O)OP(=O)(O)O; assay: purified protein, by the assay type; conditions: other: FPP as substrate, TPS23-Del heterologously expressed in E. coli
Description: as §1, §2, §3

[6] = read-out: Km of divalent metal ion cofactor, TPS23-Del heterologously expressed in E. coli

In the case of `C=C1CC/C=C(\C)CC[C@@H]2[C@@H]1CC2(C)C` [(E)-β-caryophyllene], the “nematodes recovered from spiked arm compared to average of the five arms not spiked” value (Heterorhabditis megidis; 0.2 μl injected into one pot, 24 h after release of about 2000 H. megidis) is reported as “Approximately twice”, the attraction of nematodes (Heterorhabditis megidis; six-arm olfactometer filled with moist sand, spiked arm vs five control arms) is reported as “significantly larger number; also recorded: attracts” and the “attraction of experienced wasps” value (Cotesia marginiventris; females with previous oviposition experience on host larvae in the presence of (E)-β-caryophyllene) is reported as “significant preference; also recorded: preferred air carrying (E)-β-caryophyllene to pure air”. The “attraction of naïve wasps” value (Cotesia marginiventris; females without oviposition experience) was “did not show this preference; also recorded: not attracted”, the anti-microbial activity (pathogens) was “has anti-microbial activity” and the “attractiveness to adult females of D. v. virgifera” value [1] was “reported attractiveness”.

Work on `CC(C)=CCC/C(C)=C/CC/C(C)=C/CO[P@@](=O)(O)OP(=O)(O)O` [FPP, (E,E)-farnesyl diphosphate] yielded a Km (TPS23-Del [2]; read-out: Km value for FPP, purified enzyme, tritium-labeled FPP) of 2.4 ± 0.4 µM.

For `CC(C)=CCC/C(C)=C/CC/C(C)=C/CC/C(C)=C/COP(=O)(O)OP(=O)(O)O` [GGPP, geranylgeranyl diphosphate], the acceptance as substrate (TPS23-Del [3]) was “does not accept; also recorded: did not accept”.

For `CC(C)=CCC/C(C)=C/COP(=O)(O)OP(=O)(O)O` [GPP, geranyl diphosphate], the acceptance as substrate (TPS23-Del [3]) was “does not accept; also recorded: did not accept”.

For `[Mg+2]` [Mg^2+], the “enzyme activity with divalent cation” value (TPS23-Del [2]; 10 mM) was “substantial activities” and the Km (TPS23-Del [2]; [6]) was 183 ± 34 µM.

In the case of `[Mn+2]` [Mn^2+], the “enzyme activity with divalent cation” value (TPS23-Del [2]; 0.25 mM) is reported as “substantial activities” and the Km (TPS23-Del [2]; [6]) is reported as 28 ± 6 µM.

In the case of `CN1CCCCC1CCN1c2ccccc2Sc2ccc([S+](C)[O-])cc21` (stereo not shown) [TPS23-Del], the “time enzyme activity was stable” value [4] is reported as “at least 1 month”.

B1: TPS23-Del (Zea mays) (protein)
chain: MAADEARSVSRLHSEEDMHGKHHSTLWGDFFLHHVPCRPGQYLIMKDNVEIMKEEVKKMLLDVGSSDLSHKLDCIDTLERLGLDYHYTKEIDELMCNVFEARDQDLDLTTTSQLFYLLRKHGYHISSDVFLKFRDDKGDIVTNDARCLLRMYEAAHVRVNGEEILDNILIHTKRQLQCIVDDLEPTLQEEVRYALETPLFRRLNRVQARQFISTYEKSTTRINMLLEFSKLDFNILLTLYCEELKDLTLWWKEFQAQANTTIYARDRMVEMHFWMMGVFFEPQYSYSRKMLTQLFMIVSVLDDLYDSHCTTEEGNAFTAALQRWDEEGVEQCPTYLRTLYTNIRATIKAIEEDLNFQNNKHAKLVKGLIIDMAMCYNAETEWRDKKYVPATVDEHLKISARSSGCMHLVSQGFISMGDVATSEALEWASTYPKIVRAVCIIARLANDIMSYKREASNNTMVSTVQTCAKEYGTTTVEQAIEKIRELIEEAWMDITHECLRQPQPKALLERAVNLARTMDFLYKDADGYTDSRSIKGILDSLYVHLID
Work on B1 yielded a Km ([5]; 0.25 mM MnCl2) of 1.1 ± 0.3 µM and a Km ([5]; 10 mM MgCl2) of 3.7 ± 0.5 µM.
